Experimental findings from patent US7745646B2, “Bicyclic heteroaryl inhibitors of PDE4” (Kalypsys, Inc., priority 2006, dated 2010) are described below.

Assay [1] relates to Lacrimal Gland Inflammation-Induced Dry Eye in Rabbits. The assay can be described thus: Lacrimal Gland Inflammation-Induced Dry Eye in Rabbits. Type of assay: in vivo. Particulars: 1 percent, topical ocular BID, rabbit dry eye. An excerpt:
A more detailed description of the assay used herein may be found in Naglehout, T J et al. 2005, “Preservation of Tear Film Integrity and Inhibition of Corneal Injury by Dexamethasone in a Rabbit Model of Lacrimal Gland Inflammation-Induced Dry Eye,” J. Ocular Pharm. Ther., 21:2. 139-148, the disclosure of which is hereby incorporated by reference as if written herein in its entirety.
Rabbits (n=4/group) were randomized into treatment groups and dosed topically BID with maxidex vehicle or test drug beginning one day prior to initiation of dry eye. Each rabbit received bilateral lacrimal gland injections of saline or ConA (300 μg/30 μl) and topical ocular dosing was continued BID throughout the study.
Desiccation was initiated 1-2 hours following lacrimal gland injection by placing conscious rabbits in the environmental chamber (10-15% humidity/72° F.). […] Absorbance of the extracted dye was determined at 660 nm.
TBUT was quantified in a separate group of treated animals. TBUT was determined by instilling 5 μL sodium fluorescein into the cul de sac and manually blinking the lids to distribute the fluorescein within the tear film. Under slit lamp observation, the eye was held open and the time whereby one or more black spots or streaks appeared in the precorneal tear film was recorded. […]

In the next assay the target is T1, PDE4B (Homo sapiens, UniProt Q07343).
T1 construct: hex-histidine (His6) (N); made in house
T1 sequence (Q07343 330-659 limits assumed, species assumed): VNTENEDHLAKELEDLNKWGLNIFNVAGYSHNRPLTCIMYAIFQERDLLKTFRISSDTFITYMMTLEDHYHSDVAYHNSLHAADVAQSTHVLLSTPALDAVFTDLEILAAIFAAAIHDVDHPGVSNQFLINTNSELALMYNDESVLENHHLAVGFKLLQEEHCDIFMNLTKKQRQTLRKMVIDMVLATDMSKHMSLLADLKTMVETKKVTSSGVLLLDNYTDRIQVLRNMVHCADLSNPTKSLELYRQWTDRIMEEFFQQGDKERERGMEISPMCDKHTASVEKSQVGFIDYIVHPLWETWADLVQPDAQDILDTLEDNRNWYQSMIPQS
The assay is described as follows: Novel coupled PDE/AK bioluminescent assay, PDE4B inhibition. It is filed as biochemical. Particulars: PDE4B catalytic domain.

SMILES strings stand for the structures.

Excerpt for PDE4B: We developed a novel coupled PDE/AK bioluminescent high-throughput assay to measure the activity of phosphodiesterases. In the PDE/AK assay, the AMP produced from the hydrolysis of cAMP by phosphodiesterase is converted to adenosine diphosphate (ADP) by the phosphotransferase activity of adenylate kinase (also known as ADK or myokinase). Adenylate kinase will catalyze the conversion of 1 mole of AMP and 1 mole of ATP into 2 moles of ADP. Thus the conversion of AMP to ADP will result in the subsequent loss of ATP. The decrease in ATP concentration can be monitored as light output using luciferase in a reaction that requires ATP to produce light. The PDE/AK assay uses luciferase, which catalyzes the production of light from ATP present in the reaction mix. The amount of emitted light is inversely proportional to the level of AMP present in the reaction. Test compounds are incubated with the phosphodiesterases and phosphodiesterase inhibitors will decrease the rate of cAMP hydrolysis and decrease the subsequent production of AMP.
A novel coupled PDE/AK assay was utilized to measure the inhibitory activity of compounds on PDE isoforms. The catalytic domain of PDE4B was fused to an amino-terminus hex-histidine affinity tag and purified. PDE4B enzyme was incubated with compounds for 10 minutes. Cyclic AMP substrate, ATP and adenylate kinase were then added to the PDE enzyme mix and incubated for 45 minutes at room temperature. A commercial ATP detection assay, Perkin Elmer's easyLite ATP detection reagent, was then added to measure the relative amount of ATP present in the reaction. After 10 minute incubation, the luminescent signal was quantitated with either the Perkin Elmer Viewlux or Molecular Devices Acquest or Analyst.

As for `COc1ccc2c(Nc3c(Cl)cncc3Cl)cc(=O)oc2c1OC1CCCC1` [Example 3, 8-(Cyclopentyloxy)-4-(3,5-dichloropyridin-4-ylamino)-7-methoxy-2H-chromen-2-one], the “Activity at Percent Concentration Tested” value in assay [1] is given as “Inactive”. For the same compound, on PDE4B, the half-maximal inhibitory concentration (IC50) is less than 1 µM. In the same order, the values of `COc1ccc2c(Nc3c(Cl)cncc3Cl)cc(=O)oc2c1OCC1CC1` [Example 5, 8-(Cyclopropylmethoxy)-4-(3,5-dichloropyridin-4-ylamino)-7-methoxy-2H-chromen-2-one] are “Inactive” and less than 1 µM. `COc1ccc2c(Nc3c(Cl)cncc3Cl)cc(=O)oc2c1OCCCCCCN(C)C` [Example 79, 4-(3,5-Dichloropyridin-4-ylamino)-8-(6-(dimethylamino)hexyloxy)-7-methoxy-2H-chromen-2-one] showed an IC50 against PDE4B of less than 1 µM. `COc1ccc2c(Nc3c(Cl)cncc3Cl)cc(=O)oc2c1OCCCCCCCN(C)C` [Example 80, 4-(3,5-Dichloropyridin-4-ylamino)-8-(7-(dimethylamino)heptyloxy)-7-methoxy-2H-chromen-2-one]: at PDE4B, the IC50 is less than 1 µM. Take `COc1ccc2c(Nc3c(Cl)cncc3Cl)cc(=O)oc2c1OCCCCCCCCN(C)C` [Example 81, 4-(3,5-Dichloropyridin-4-ylamino)-8-(8-(dimethylamino)octyloxy)-7-methoxy-2H-chromen-2-one]: on PDE4B, the IC50 is less than 1 µM. The same measure, in the same setting: the same measure for `COc1ccc2c(Nc3c(Cl)cncc3Cl)c(CCO)c(=O)oc2c1OC1CCCC1` [Example 82, 8-(Cyclopentyloxy)-4-(3,5-dichloropyridin-4-ylamino)-3-(2-hydroxyethyl)-7-methoxy-2H-chromen-2-one]: more than 1 µM; for `COc1ccc2c(Nc3c(Cl)cncc3Cl)cc(=O)oc2c1OCCCCCNC(=N)N` [Example 83, 1-(5-(4-(3,5-Dichloropyridin-4-ylamino)-7-methoxy-2-oxo-2H-chromen-8-yloxy)pentyl)guanidine]: less than 1 µM; for `COc1ccc2c(Nc3c(Cl)cncc3Cl)cc(=O)oc2c1OCCCCCC(=O)NO` [Example 84, 6-(4-(3,5-Dichloropyridin-4-ylamino)-7-methoxy-2-oxo-2H-chromen-8-yloxy)-N-hydroxyhexanamide]: less than 1 µM. The same measure, in the same setting: then `COc1ccc2c(Nc3c(Cl)cncc3Cl)cc(=O)oc2c1OCCCO` [Example 85, 4-(3,5-Dichloropyridin-4-ylamino)-8-(3-hydroxypropoxy)-7-methoxy-2H-chromen-2-one], with less than 1 µM. `COc1ccc2c(Nc3c(Cl)cncc3Cl)cc(=O)oc2c1OCCCCOC(C)=O` [Example 86, 4-(4-(3,5-Dichloropyridin-4-ylamino)-7-methoxy-2-oxo-2H-chromen-8-yloxy)butyl acetate] came in with a half-maximal inhibitory concentration (IC50) at PDE4B of less than 1 µM. Still for that read-out and setting: the same measure for `COc1ccc2c(Nc3c(Cl)cncc3Cl)cc(=O)oc2c1OCCCCO[C@@H]1O[C@H](CO)[C@@H](O)[C@H](O)[C@H]1O` [Example 87, 4-(3,5-Dichloropyridin-4-ylamino)-7-methoxy-8-(4-((2R,3R,4S,5S,6R)-3,4,5-trihydroxy-6-(hydroxymethyl)tetrahydro-2H-pyran-2-yloxy)butoxy)-2H-chromen-2-one]: less than 1 µM; for `COc1ccc2c(Nc3c(Cl)cncc3Cl)cc(=O)oc2c1OCC(=O)NO` [Example 88, 2-(4-(3,5-Dichloropyridin-4-ylamino)-7-methoxy-2-oxo-2H-chromen-8-yloxy)-N-hydroxyacetamide]: less than 1 µM; for `CCCN(C)CCCCCOc1c(OC)ccc2c(Nc3c(Cl)cncc3Cl)cc(=O)oc12` [Example 89, 4-(3,5-Dichloropyridin-4-ylamino)-7-methoxy-8-(5-(methyl(propyl)amino)pentyloxy)-2H-chromen-2-one]: less than 1 µM.

In turn, `CCCCN(C)CCCCCOc1c(OC)ccc2c(Nc3c(Cl)cncc3Cl)cc(=O)oc12` [Example 90, 8-(5-(Butyl(methyl)amino)pentyloxy)-4-(3,5-dichloropyridin-4-ylamino)-7-methoxy-2H-chromen-2-one] returned an IC50 on PDE4B of less than 1 µM.

Consider `CCCCCN(C)CCCCCOc1c(OC)ccc2c(Nc3c(Cl)cncc3Cl)cc(=O)oc12` [Example 91, 4-(3,5-Dichloropyridin-4-ylamino)-7-methoxy-8-(5-(methyl(pentyl)amino)pentyloxy)-2H-chromen-2-one], for which the concentration for half-maximal inhibition (IC50) on PDE4B is less than 1 µM. Still for that read-out and setting: the same measure for `COc1ccc2c(Nc3c(Cl)cncc3Cl)cc(=O)oc2c1OCCCCCN(C)CCCN(C)C` [Example 92, 4-(3,5-Dichloropyridin-4-ylamino)-8-(5-((3-(dimethylamino)propyl)(methyl)amino)pentyloxy)-7-methoxy-2H-chromen-2-one]: less than 1 µM; for `COc1ccc2c(Nc3c(Cl)cncc3Cl)cc(=O)oc2c1OCCCCCN(C)CCN(C)C` [Example 93, 4-(3,5-Dichloropyridin-4-ylamino)-8-(5-((2-(dimethylamino)ethyl)(methyl)amino)pentyloxy)-7-methoxy-2H-chromen-2-one]: less than 1 µM; for `CCOC(=O)CNC(=O)CCCCCOc1c(OC)ccc2c(Nc3c(Cl)cncc3Cl)cc(=O)oc12` [Example 94, Ethyl 2-(6-(4-(3,5-dichloropyridin-4-ylamino)-7-methoxy-2-oxo-2H-chromen-8-yloxy)hexanamido)acetate]: less than 1 µM. Still for that read-out and setting: the same measure for `COC(=O)[C@H](C)NC(=O)CCCCCOc1c(OC)ccc2c(Nc3c(Cl)cncc3Cl)cc(=O)oc12` [Example 95, (S)-Methyl 2-(6-(4-(3,5-dichloropyridin-4-ylamino)-7-methoxy-2-oxo-2H-chromen-8-yloxy)hexanamido)propanoate]: less than 1 µM; for `COc1ccc2c(Nc3c(Cl)cncc3Cl)cc(=O)oc2c1OCCCCCC(=O)NCC(=O)O` [Example 96, 2-(6-(4-(3,5-Dichloropyridin-4-ylamino)-7-methoxy-2-oxo-2H-chromen-8-yloxy)hexanamido)acetic acid]: less than 1 µM; for `COc1ccc2c(Nc3c(Cl)cncc3Cl)cc(=O)oc2c1OCCCCCC(=O)N[C@@H](C)C(=O)O` [Example 97, (S)-2-(6-(4-(3,5-Dichloropyridin-4-ylamino)-7-methoxy-2-oxo-2H-chromen-8-yloxy)hexanamido)propanoic acid]: less than 1 µM. The same measure, in the same setting: the same measure for `COc1ccc2c(Nc3c(Cl)cncc3Cl)cc(=O)oc2c1OCCCCCn1ccnn1` [Example 98, 8-(5-(1H-1,2,3-Triazol-1-yl)pentyloxy)-4-(3,5-dichloropyridin-4-ylamino)-7-methoxy-2H-chromen-2-one]: less than 1 µM; for `COc1ccc2c(Nc3c(Cl)cncc3Cl)cc(=O)oc2c1OCCCCCn1nccn1` [Example 99, 8-(5-(2H-1,2,3-Triazol-2-yl)pentyloxy)-4-(3,5-dichloropyridin-4-ylamino)-7-methoxy-2H-chromen-2-one]: less than 1 µM. `CNCCCCCOc1c(OC)ccc2c(Nc3c(Cl)cncc3Cl)cc(=O)oc12` [Example 100, 4-(3,5-Dichloropyridin-4-ylamino)-7-methoxy-8-(5-(methylamino)pentyloxy)-2H-chromen-2-one] had a half-inhibitory concentration (IC50) at PDE4B of less than 1 µM. Still for that read-out and setting: the same measure for `COc1ccc2c(Nc3c(Cl)cncc3Cl)cc(=O)oc2c1OCCCCCn1ncnn1` [Example 101, 8-(5-(2H-Tetrazol-2-yl)pentyloxy)-4-(3,5-dichloropyridin-4-ylamino)-7-methoxy-2H-chromen-2-one]: less than 1 µM; for `COc1ccc2c(Nc3c(Cl)cncc3Cl)cc(=O)oc2c1OCCCCCn1cnnn1` [Example 102, 8-(5-(1H-Tetrazol-1-yl)pentyloxy)-4-(3,5-dichloropyridin-4-ylamino)-7-methoxy-2H-chromen-2-one]: less than 1 µM; for `COc1ccc2c(Nc3c(Cl)cncc3Cl)cc(=O)oc2c1OCCCCCn1cncn1` [Example 103, 8-(5-(1H-1,2,4-Triazol-1-yl)pentyloxy)-4-(3,5-dichloropyridin-4-ylamino)-7-methoxy-2H-chromen-2-one]: less than 1 µM.

Turning to `COc1ccc2c(Nc3c(Cl)cncc3Cl)cc(=O)oc2c1OCCCCCOP(=O)(O)O` [Example 104, 5-(4-(3,5-Dichloropyridin-4-ylamino)-7-methoxy-2-oxo-2H-chromen-8-yloxy)pentyl dihydrogen phosphate], the half-maximal inhibitory concentration (IC50) at PDE4B is less than 1 µM. `CNP(=O)(NC)OCCCCCOc1c(OC)ccc2c(Nc3c(Cl)cncc3Cl)cc(=O)oc12` [Example 105] displayed a concentration for half-maximal inhibition (IC50) against PDE4B of less than 1 µM.
